Experimental data taken from patent publication US20250197387A1, “BCL-XL DEGRADERS AND USES THEREOF” (Kymera Therapeutics, Inc., priority 2021, published 2025).
pIC50: −log10 of the molar value. Where two headings read alike, the source gives them in different places.

Experiments:
Assay type in all cases: cell-based
BCL-XL = molecular target: T1, BCL-XL (Homo sapiens, UniProt Q07817); assay: Bcl-xL ELISA degradation in MOLT-4 cells, 6 h; settings: for DC50: read-out: Bcl-xL ELISA in MOLT-4 degradation 6 h: Mean external-Abs DC50
T1 construct: endogenous in cells; host or cells: MOLT-4
T1 sequence (Q07817 whole entry): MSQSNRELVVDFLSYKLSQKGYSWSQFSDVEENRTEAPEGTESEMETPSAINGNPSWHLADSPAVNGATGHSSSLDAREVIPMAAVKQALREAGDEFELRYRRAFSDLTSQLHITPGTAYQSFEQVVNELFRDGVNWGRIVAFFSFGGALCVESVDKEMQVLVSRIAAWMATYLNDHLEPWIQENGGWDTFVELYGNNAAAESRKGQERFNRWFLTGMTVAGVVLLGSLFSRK
Method: The letter codes for BCL-XL DC50 include: A (<0.01 μM); B (0.01-0.1 μM); C (>[…]); D (>0.5-1.0 μM); and E (>1.0 μM). The letter codes for Dmax % include A (>75%); B (50 to 75%); C (<50%).

MOLT-4 cells = assay: CTG (CellTiter-Glo) cell viability assay, MOLT-4; settings: 3 day incubation, read-out: CTG Cell Viability Assay - MOLT-4 3 day: Average external-IC50
Outline: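 MOLT-4 and Caki-2 cells at 10,000 cells/well exposed 3 days at 37° C., 5% CO2 to 9 doses (1:3, top 10 μM, 0.2% DMSO). Viability by CellTiter-Glo luminescence; IC50 from three-parameter logistic fit.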

Caki-2 cells = assay: CTG (CellTiter-Glo) cell viability assay, Caki-2; settings: 3 day incubation, read-out: CTG Chempartner - Caki-2 3 day: Average external-IC50
Method: Compound-mediated viability effect on MOLT-4 and Caki-2 was quantitatively determined using the CellTiter-Glo® Luminescent Cell Viability Assay kit from Promega (Catalog number G7570) following manufacturer's recommended procedures. Briefly, MOLT-4 and Caki-2 cells were seeded into 384 well plates (Grenier Bio-One, Catalog number 781080) with a density of 10,000 cells per well. Compounds were then added to the assay plate with final top concentration of 10 μM and 1:3 dilution series with total of 9 doses. The final DMSO concentration is normalized to 0.2%. The assay plates were incubated at 37° C., for 3 days under 5% CO2. Then the assay plate was equilibrated at room temperature for 10 minutes. To determine cell viability, 30 uL CellTiter Glo reagent was added to each well and the assay plate was centrifuged at 1000 rpm for 30 second, incubated at room temperature for 10 min, and analyzed by detecting the luminescence using a multimode plate reader (EnVision 2105, PerkinElmer). The data was then analyzed by software Prism 7.0 from GraphPad and the dose response curves are fit using a three-parameter logistic equation to calculate IC50.
The letter codes for MOLT-4 IC50 include: A (<0.1 μM); B (0.1-1.0 μM); C (>1.0-3.0 μM); and D (>3.0 μM). The letter codes for Caki-2 IC50 include: A (<0.1 μM); B (0.1-1.0 μM); C (>1.0-10.0 μM); and D (>10.0 μM).

Dmax (BCL-XL)	DC50 (BCL-XL)	pIC50 (MOLT-4 cells; Homo sapiens, MOLT-4, 72 h)	Bcl-xL ELISA in MOLT-4 degradation 6 h: Average Dmax % (BCL-XL)	pIC50 (MOLT-4 cells)	Structure (SMILES)	pIC50 (Caki-2 cells; Homo sapiens, 72 h)	pIC50 (Caki-2 cells)
> 75%	< 10 nM	> 7.00			C#Cc1ccc(CNC(=O)[C@@H]2C[C@@H](O)CN2C(=O)[C@@H](NC(=O)CCCCCS(=O)(=O)NC(=O)c2nc(N3CCc4cccc(C(=O)Nc5nc6ccccc6s5)c4C3)ccc2-c2cnn(CC3CCCCC3)c2C)C(C)(C)CCO)cc1 [I-354]	< 5.00	
> 75%	100 to 500 nM	5.52 to 6.00			Cc1ncsc1-c1ccc([C@H](C)NC(=O)[C@@H]2C[C@@H](O)CN2C(=O)[C@@H](NC(=O)[C@H]2CC[C@H](N3CCC(S(=O)(=O)NC(=O)c4nc(N5CCc6cccc(C(=O)Nc7nc8ccccc8s7)c6C5)ccc4-c4cnn(CC5CCCCC5)c4C)CC3)CC2)C(C)(C)C)cc1 [I-357]	5.00 to 6.00	
< 50%	500 to 1000 nM	6.00 to 7.00			Cc1ncsc1-c1ccc([C@H](C)NC(=O)[C@@H]2C[C@@H](O)CN2C(=O)[C@@H](NC(=O)CCCCc2ccc(NC(=O)c3nc(N4CCc5cccc(C(=O)Nc6nc7ccccc7s6)c5C4)ccc3-c3cnn(CC4CCCCC4)c3C)cc2)C(C)(C)C)cc1 [I-298]	5.00 to 6.00	
> 75%	10 to 100 nM	6.00 to 7.00			Cc1ncsc1-c1ccc([C@H](C)NC(=O)[C@@H]2C[C@@H](O)CN2C(=O)[C@@H](NC(=O)C2CCN(CCS(=O)(=O)NC(=O)c3nc(N4CCc5cccc(C(=O)Nc6nc7ccccc7s6)c5C4)ccc3-c3cnn(CC4CCCCC4)c3C)CC2)C(C)(C)C)cc1 [I-373]	< 5.00	
> 75%	100 to 500 nM	5.52 to 6.00			Cc1ncsc1-c1ccc([C@H](C)NC(=O)[C@@H]2C[C@@H](O)CN2C(=O)[C@H](NC(=O)CCCCCS(=O)(=O)NC(=O)c2nc(N3CCc4cccc(C(=O)Nc5nc6ccccc6s5)c4C3)ccc2-c2cnn(CC3CCCCC3)c2C)C(C)(C)CCO)cc1 [I-366]	< 5.00	
> 75%	100 to 500 nM	5.52 to 6.00			Cc1ncsc1-c1ccc(CNC(=O)[C@@H]2C[C@@H](O)CN2C(=O)[C@@H](NC(=O)CCCCCS(=O)(=O)NC(=O)c2nc(N3CCc4cccc(C(=O)Nc5nc6cccnc6s5)c4C3)ccc2-c2cnn(CC(C)(C)C)c2C)C(C)(C)C)cc1 [I-467]	< 5.00	
> 75%	10 to 100 nM	6.00 to 7.00			C#Cc1ccc(CNC(=O)[C@@H]2C[C@@H](O)CN2C(=O)[C@@H](NC(=O)CCCS(=O)(=O)NC(=O)c2nc(N3CCc4cccc(C(=O)Nc5nc6cccnc6s5)c4C3)ccc2-c2cnn(CC3CCCCC3)c2C)C(C)(C)C)cc1 [I-362]	< 5.00	
	10 to 100 nM		A (A (>75%))	> 7.00	Cc1ncsc1-c1ccc(CNC(=O)[C@@H]2C[C@@H](O)CN2C(=O)[C@@H](NC(=O)CCc2cccc(S(=O)(=O)NC(=O)c3nc(N4CCc5cccc(C(=O)Nc6nc7ccccc7s6)c5C4)ccc3-c3cnn(CC4CCCCC4)c3C)c2)C(C)(C)C)cc1 [I-321]		5.00 to 6.00
> 75%	10 to 100 nM	> 7.00			Cc1ncsc1-c1ccc([C@H](C)NC(=O)[C@@H]2C[C@@H](O)CN2C(=O)[C@@H](NC(=O)C2CN(c3ccc(S(=O)(=O)NC(=O)c4nc(N5CCc6cccc(C(=O)Nc7nc8ccccc8s7)c6C5)ccc4-c4cnn(CC5CCCCC5)c4C)cc3)C2)C(C)(C)C)cc1 [I-343]	5.00 to 6.00	
> 75%	100 to 500 nM	6.00 to 7.00			COc1nn(C)c2ccc([C@@H](C)NC(=O)[C@@H]3C[C@@H](O)CN3C(=O)[C@@H](NC(=O)CCCCCS(=O)(=O)NC(=O)c3nc(N4CCc5cccc(C(=O)Nc6nc7cccnc7s6)c5C4)ccc3-c3cnn(CC4CCCCC4)c3C)C(C)(C)C)cc12 [I-490]	< 5.00	
> 75%	10 to 100 nM	6.00 to 7.00			Cc1ncsc1-c1ccc([C@H](C)NC(=O)[C@@H]2C[C@@H](O)CN2C(=O)[C@@H](NC(=O)CCCCCS(=O)(=O)NC(=O)c2nc(N3CCc4cccc(C(=O)Nc5nc6ccccc6s5)c4C3)ccc2-c2cnn(CC(C)(C)C)c2C)C(C)(C)C)cc1 [I-465]	< 5.00	

Second part, the compound before the results:

Structure (SMILES)	Dmax (BCL-XL)	DC50 (BCL-XL)	pIC50 (MOLT-4 cells; Homo sapiens, MOLT-4, 72 h)	Bcl-xL ELISA in MOLT-4 degradation 6 h: Average Dmax % (BCL-XL)	pIC50 (MOLT-4 cells)	pIC50 (Caki-2 cells; Homo sapiens, 72 h)	pIC50 (Caki-2 cells)
Cc1cc(N(C)c2ccc(-c3cnn(CC45CC6CC(CC(C6)C4)C5)c3C)c(C(=O)NS(=O)(=O)CCCCCC(=O)N[C@H](C(=O)N3C[C@H](O)C[C@H]3C(=O)N[C@@H](C)c3ccc(-c4scnc4C)cc3)C(C)(C)C)n2)nnc1Nc1nc2ccccc2s1 [I-356]	> 75%	< 10 nM	> 7.00			< 5.00	
Cc1ncsc1-c1ccc([C@H](C)NC(=O)[C@@H]2C[C@@H](O)CN2C(=O)[C@@H](NC(=O)C2CCN(c3ccc(S(=O)(=O)NC(=O)c4nc(N5CCc6cccc(C(=O)Nc7nc8ccccc8s7)c6C5)ccc4-c4ccnc(N(C)C(C)C)c4C)cc3)CC2)C(C)(C)C)cc1 [I-332]	> 75%	10 to 100 nM	6.00 to 7.00			< 5.00	
Cc1ncsc1-c1ccc([C@H](C)NC(=O)[C@@H]2C[C@@H](O)CN2C(=O)[C@@H](NC(=O)C2CCN(c3ccc(S(=O)(=O)NC(=O)c4nc(N5CCc6cccc(C(=O)Nc7nc8ccccc8s7)c6C5)ccc4-c4cnn(CC5CCCCC5)c4C)cc3CC(=O)O)CC2)C(C)(C)C)cc1 [I-296]	50 to 75%	100 to 500 nM	6.00 to 7.00			5.00 to 6.00	
Cc1ncsc1-c1ccc([C@H](C)NC(=O)[C@@H]2C[C@@H](O)CN2C(=O)[C@@H](NC(=O)C2CCC(O)(c3ccc(S(=O)(=O)NC(=O)c4nc(N5CCc6cccc(C(=O)Nc7nc8ccccc8s7)c6C5)ccc4-c4cnn(CC5CCCCC5)c4C)cc3)CC2)C(C)(C)C)cc1 (some centres unmarked) [I-314]	< 50%	> 1000 nM	6.00 to 7.00			5.00 to 6.00	
Cc1ncsc1-c1ccc([C@H](C)NC(=O)[C@@H]2C[C@@H](O)CN2C(=O)[C@H](c2cc(OC3CCN(CCNC(=O)c4nc(N5CCc6cccc(C(=O)Nc7nc8ccccc8s7)c6C5)ccc4-c4cnn(CC5CCCCC5)c4C)CC3)no2)C(C)C)cc1 [I-292]	50 to 75%	100 to 500 nM	6.00 to 7.00			5.00 to 6.00	
C#Cc1ccc(CNC(=O)[C@@H]2C[C@@H](O)CN2C(=O)[C@@H](NC(=O)CCCCCS(=O)(=O)NC(=O)c2nc(N(C)c3cc(C)c(Nc4nc5cccnc5s4)nn3)ccc2-c2cnn(CC34CC5CC(CC(C5)C3)C4)c2C)C(C)(C)C)cc1 [I-446]	> 75%	10 to 100 nM	6.00 to 7.00			< 5.00	
C#Cc1ccc([C@H](C)NC(=O)[C@@H]2C[C@@H](O)CN2C(=O)[C@@H](NC(=O)CCCCCS(=O)(=O)NC(=O)c2nc(N(C)c3cc(C)c(Nc4nc5ccccc5s4)nn3)ccc2-c2cnn(CC34CC5CC(CC(C5)C3)C4)c2C)C(C)(C)C)c(OCCO)c1 [I-477]	> 75%	< 10 nM	> 7.00			< 5.00	
C#Cc1ccc(C2(NC(=O)[C@@H]3C[C@@H](O)CN3C(=O)[C@@H](NC(=O)CCCCCS(=O)(=O)NC(=O)c3nc(N(C)c4cc(C)c(Nc5nc6ccccc6s5)nn4)ccc3-c3cnn(CC45CC6CC(CC(C6)C4)C5)c3C)C(C)(C)C)CC2)cc1 [I-481]	> 75%	< 10 nM	> 7.00			< 5.00	
Cc1cc(N(C)c2ccc(-c3cnn(CC45CC6CC(CC(C6)C4)C5)c3C)c(C(=O)NS(=O)(=O)CCCC(=O)N[C@H](C(=O)N3C[C@H](O)C[C@H]3C(=O)N[C@@H](C)c3ccc(-c4scnc4C)cc3)C(C)(C)C)n2)nnc1Nc1nc2ccccc2s1 [I-370]	> 75%	10 to 100 nM	> 7.00			< 5.00	
